From patent publication US6689803B2, “Compositions and methods for treating surgical adhesions” (Angiotech Pharmaceuticals, Inc., priority 1996, dated 2004)
Read-outs that look alike come from different tables or passages of the source.

Legend:
[1] = tested on: collagen-induced arthritis; assay: CIA rat model, intraperitoneal micellar paclitaxel; type: in vivo
Experimental: As a comparison with standard therapy, a third group received methotrexate at 0.3 mg/kg i.p. (human equivalent dose) on days 0, 5 and 10 post-arthritis onset. […] The control (group 5) and experimental animals were evaluated for disease severity both clinically and radiographically by individuals blinded to treatment groups.
The severity of inflammation for each limb was evaluated daily and scored based on standardized levels of swelling and periarticular erythema (0 being normal and 4 severe). Animals were evaluated radiographically on day 28 of the experiment. […] Histological assessment of the joints was completed at the conclusion of the experiment.

[2] = tested on: chick chorioallantoic membrane (CAM) vasculature
neutrophils [3] = assay: Neutrophil chemiluminescence assay (opsonized CPPD crystals or zymosan); type: cell-based, human
Experimental: (§1) All experiments that studied neutrophil responses to crystals or zymosan in the presence of paclitaxel were performed using plasma opsonized CPPD or zymosan. Opsonization of crystals or zymosan was done with 50% heparinized plasma at a concentration of 75 mg of CPPD or 12 mg of zymosan per ml of 50% plasma Crystals or zymosan were incubated with plasma for 30 minutes at 37° C. and then washed in excess HBSS.
(§2) Neutrophil viability and purity was always greater than 90%.
A stock solution of LY290181 at 100 μM in HBSS was freshly prepared.
All chemiluminescence studies were performed at a cell concentration of 5,000,000 cells/ml in HBSS with CPPD (50 mg/ml). In all experiments 0.5 ml of cells was added to 25 mg of CPPD or 0.5 mg of zymosan in 1.5 ml capped Eppendorf tubes. 10 μl of luminol dissolved in 25% DMSO in HBSS was added to a final concentration of 1 μM and the samples were mixed to initiate neutrophil activation by the crystals or zymosan. Chemiluminescence was monitored using an LKB Luminometer (Model 1250) at 37° C. for 20 minutes with shaking immediately prior to measurements to resuspend the crystals or zymosan. Control tubes contained cells, drug and luminol (crystals absent).

collagenase (MMP-1) mRNA = assay: IL-1 induced collagenase mRNA expression in chondrocytes (Northern blot); type: cell-based, calf; conditions: pre-incubation 6 hours, IL-1 20 ng/ml 18 hours
Experimental: Total RNA was isolated, and the MMP-1 mRNA levels were determined by Northern blot analysis. The blots were subsequently stripped and reprobed with ^32P-radiolabeled rat GAPDH cDNA, which was used as a housekeeping gene. The results shown are representative of four independent experiments. Quantitation of collagenase-1 and stromelysin-expression mRNA levels. The MMP-1 and MMP-3 expression levels were normalized with GAPDH.
Primary chondrocyte cultures were freshly isolated from calf cartilage. The cells were plated at 2.5×10^6 per ml in 100×20 mm culture dishes and incubated in Ham's F12 medium containing 5% FBS overnight at 37° C. […] IL-1 (20 ng/ml) was then added to each plate and the plates incubated for an additional 18 hours. Total RNA was isolated by the acidified guanidine isothiocyanate method and subjected to electrophoresis on a denatured gel. Denatured RNA samples (15 μg) were analyzed by gel electrophoresis in a 1% denatured gel, transferred to a nylon membrane and hydridized with the ^32P-labeled collagenase cDNA probe. ^32P-labeled glyceraldehyde phosphate […] (GAPDH) cDNA as an internal standard to ensure roughly equal loading. The exposed films were scanned and quantitatively analyzed with ImageQuant.

aggrecan mRNA = assay: Expression of proteoglycan (aggrecan) in chondrocytes; type: cell-based, calf; conditions: all concentrations evaluated (10^−7 M to 10^−4 M)
Experimental: Primary chondrocyte cultures were freshly isolated from calf cartilage. The cells were plated at 2.5×10^6 per ml in 100×20 mm culture dishes and incubated in Ham's F12 medium containing 5% FBS overnight at 37° C. The cells were starved in serum-free medium overnight and then treated with anti-microtubule agents at various concentrations (10^−7 M, 10^−6 M, 10^−5 M and 10^−4 M) for 6 hours. […] Total RNA was isolated by the acidified guanidine isothiocyanate method and subjected to electrophoresis on a denatured gel. […] The exposed films were scanned and quantitatively analyzed with ImageQuant.

synoviocytes = assay: Proliferation assay (MTT); type: cell-based; conditions: 24-hour exposure
Experimental: On day one, 5-10×10^4 synoviocytes were plated per well (96-well plate). Column #1 was kept free of cells (blank). On day 2, the plate was flicked to discard the medium and 200 μl of medium containing various concentrations of drug was added. […] There was no drug added to columns #1 and #2 (blank and untreated control, respectively). The medium containing the drug was discarded and 200 μl of fresh complete medium was added. The cells were then left to grow for an additional 3 to 4 days. On day five, 20 μl of dimethylthiazol diphenyltetrazolium bromide salt (MTT) (5 mg/ml PBS) was added and allowed to incubate for 4 hours at 37° C. The medium was decanted and 200 μl of DMSO was added.
The data were expressed as the % of survival which was obtained by dividing the number of cells remaining after treatment by the number of cells in the untreated control column #2 (the number of cells was obtained from a standard done prior to the assay).

neutrophils [4] = assay: Neutrophil degranulation assay (myeloperoxidase, lysozyme release); type: cell-based, human; conditions: 17 μM; CPPD crystals
Experimental: as §2
One and a half milliliter Eppendorf tubes containing either 25 mg of CPPD or 1 mg of zymosan were preheated to 37° C. 0.5 ml of cells at 37° C. were added followed by vigorous shaking to initiate the reactions. At appropriate times, tubes were centrifuged at 10,000 g for 10 seconds and 0.4 ml of supernatant was stored at −20° C. for later assay.
Lysozyme was measured by the decrease in absorbance at 450 nm of a Micrococcus lysodeikticus suspension. Briefly, Micrococcus lysodeikticus was suspended at 0.1 mg/ml in 65 mM potassium phosphate buffer, pH 6.2 and the absorbance at 450 nm was adjusted to 0.7 units by dilution. The crystal (or zymosan) and cell supernatant (100 μl) was added to 2.5 ml of the Micrococcus suspension and the decrease in absorbance was monitored. Lysozyme standards (chicken egg white) in the 0 to 2000 units/ml range were prepared and a calibration graph of lysozyme concentration against the rate of decrease in the absorbance at 450 nm was obtained.
Myeloperoxidase (MPO) activity was measured by the increase in absorbance at 450 nm that accompanies the oxidation of dianisidine. 7.8 mg of dianisidine was dissolved in 100 ml of 0.1 M citrate buffer, pH 5.5 at […] by sonication. To a 1 ml cuvette, 0.89 ml of the dianisidine solution was added, followed by 50 μl of 1% Triton x 100, 10 μl of a 0.05% hydrogen peroxide in water solution and 50 μl of crystal-cell supernatant. MPO activity was determined from the change in absorbance (450 nm) per minute, Delta Å 450, using the following equation: […]

neutrophils [5] = assay: Superoxide anion generation by neutrophils; type: cell-based, human; conditions: 17 μM; CPPD crystals
Experimental: as §1, §2
Superoxide anion concentrations were measured using the superoxide dismutase inhibitable reduction of cytochrome C assay. Briefly, 25 mg of crystals or 0.5 mg of zymosan was placed in a 1.5 ml capped Eppendorf tube and warmed to 37° C. 0.5 ml of cells at 37° C. were added together with ferricytochrome C (final concentration 1.2 mg/ml) and the cells were activated by shaking the capped tubes. At appropriate times tubes were centrifuged at 10,000 g for 10 seconds and the supernatant collected for assay be measuring the absorbance of 550 nm. Control tubes were set up under the same conditions with the inclusion of superoxide dismutase at 600 units per ml.

CN(Cc1cnc2nc(N)nc(N)c2n1)c1ccc(C(=O)N[C@@H](CCC(=O)O)C(=O)O)cc1 [methotrexate]
Percentage of Animals with Erosions ([1]; 0.3 mg/kg): 76% | Radiographic Score ([1]; 0.3 mg/kg): 4.25 ± 0.64 | Antibody to Collagenase II ([1]; 0.3 mg/kg i.p.): 0.182 ± 0.0034 | Arthritic Index on Day 10 ([1]; 0.3 mg/kg i.p.): 5.4 ± 0.6 | Maximum Mean Arthritis Score ([1]; 0.3 mg/kg i.p.): 5.7 ± 0.6

herbimysin
Inhibition/n ([2]; PCL paste (3 mg), 2%): 3/4 | Inhibition/n ([2]; in vivo): 1/1

CCc1occc(=O)c1[O-].CCc1occc(=O)c1[O-].[O-2].[V+4] [BEOV]
Inhibition/n ([2]; PCL paste (3 mg), 10%): too toxic

CCOC(=O)CN [glycine ethyl ester]
inhibition of plasma opsonized zymosan-induced neutrophil chemiluminescence (neutrophils [3]; 0.5 to 20 mM): strong inhibition | prevented IL-1-induced collagenase expression at concentrations as low as (collagenase (MMP-1) mRNA): 100 nM | expression of aggrecan (aggrecan mRNA): did not affect the expression of aggrecan

COC(=O)/C=C/c1cc(O)ccc1O [MDHC]
Inhibition/n ([2]; PCL paste (3 mg), 20%): 0/8

CC[C@]1(O)C[C@H]2CN(CCc3c([nH]c4ccccc34)[C@@](C(=O)OC)(c3cc4c(cc3OC)N(C=O)[C@H]3[C@@](O)(C(=O)OC)[C@H](OC(C)=O)[C@]5(CC)C=CCN6CC[C@]43[C@@H]65)C2)C1 [vincristine]
Inhibition/n ([2]; PCL paste (3 mg), 1%): too toxic | Inhibition/n ([2]; PCL paste (3 mg), 2%): too toxic | toxicity to the embryo ([2]; PCL paste, concentrations exceeding 2%): unexpected embryonic death occurred | Inhibition/n ([2]; methylcellulose (10 ul), 1 ug): too toxic | Inhibition/n ([2]; methylcellulose (10 ul), 9 ug): too toxic

[O]=[V]([O-])([O-])[O-] [vanadate]
Inhibition/n ([2]; in vivo): 0/5

baccatin
Inhibition/n ([2]; methylcellulose (5 ul), 5 ug): 4/7 | Inhibition/n ([2]; paste (2 mg), 2 ug): 2/3

Cc1occc(=O)c1[O-].Cc1occc(=O)c1[O-].[O]=[V+2] [BMOV]
Inhibition/n ([2]; PCL paste (3 mg), 10%): too toxic | Inhibition/n ([2]; PCL paste (3 mg), 25%): too toxic | Inhibition/n ([2]; PCL paste (3 mg), 35%): too toxic

ethylene glycol bis-(succinimidylsuccinate)
prevented IL-1-induced collagenase expression at concentrations as low as (collagenase (MMP-1) mRNA): 100 nM | expression of aggrecan (aggrecan mRNA): did not affect the expression of aggrecan

C/C(=C\c1csc(C)n1)[C@@H]1C[C@@H]2O[C@]2(C)CCC[C@H](C)[C@H](O)[C@@H](C)C(=O)C(C)(C)[C@@H](O)CC(=O)O1 [epothilone B]
IC50 (synoviocytes): ~45 nM | prevented IL-1-induced collagenase expression at concentrations as low as (collagenase (MMP-1) mRNA): 100 nM | expression of aggrecan (aggrecan mRNA): did not affect the expression of aggrecan

N#CC1=C(N)Oc2c(ccc3ccccc23)C1c1cccnc1 (stereo not shown) [LY290181, 2-amino-4-(3-pyridyl)-4H-naphtho(1,2-b)pyran-3-cardonitrile]
IC50 (synoviocytes): < 5 nM | lysozyme release (neutrophils [4]): decreased both lysozyme and myeloperoxidase release | myeloperoxidase release (neutrophils [4]): decreased both lysozyme and myeloperoxidase release | superoxide anion production (neutrophils [5]): decrease in the amount of superoxide generated | inhibition of plasma opsonized zymosan-induced neutrophil chemiluminescence (neutrophils [3]; 0.5 to 50 μM): strong inhibition | prevented IL-1-induced collagenase expression at concentrations as low as (collagenase (MMP-1) mRNA): 100 nM | expression of aggrecan (aggrecan mRNA): did not affect the expression of aggrecan | Inhibition/n ([2]; PCL paste (3 mg), 1%): did not induce an anti-angiogenesis response | Inhibition/n ([2]; PCL paste (3 mg), 5%): ⅓

CC(O)CC(C)(C)O (stereo not shown) [hexylene glycol, 2-methyl-2,4-pentanediol]
prevented IL-1-induced collagenase expression at concentrations as low as (collagenase (MMP-1) mRNA): 100 nM | expression of aggrecan (aggrecan mRNA): did not affect the expression of aggrecan

protamine sulphate
Inhibition/n ([2]; methylcellulose (10 ul), 100 ul ^): 1/10

[2H]O[2H] [deuterium oxide]
prevented IL-1-induced collagenase expression at concentrations as low as (collagenase (MMP-1) mRNA): 100 nM | expression of aggrecan (aggrecan mRNA): did not affect the expression of aggrecan

O=S(=O)([O-])[O-].[O]=[V+2] [vanadyl sulphate]
Inhibition/n ([2]; in vivo): 0/3

aluminum fluoride
IC50 (synoviocytes): ~32000 nM | inhibition of plasma opsonized zymosan-induced neutrophil chemiluminescence (neutrophils [3]; 5 to 100 mM): strong inhibition | prevented IL-1-induced collagenase expression at concentrations as low as (collagenase (MMP-1) mRNA): 100 nM | expression of aggrecan (aggrecan mRNA): did not affect the expression of aggrecan

O=C(O)c1cc(NCc2cc(O)ccc2O)ccc1O [lavendustine-c]
Inhibition/n ([2]; PCL paste (3 mg), 10%): 0/14 | Inhibition/n ([2]; PCL paste (3 mg), 20%): 0/10
